How the values were obtained:
C. formosanus workers = experiment: Repellency, choice of treated and untreated filter paper in three-chambered containers; assay type: in vivo, Coptotermes formosanus; conditions: for concentration of strong repellency and significant reduction in feeding activity: alternative food choice, 15 days
Excerpt: Thirty-five transparent plastic containers (17.7 cm×8.0 cm×4.0 cm), Pioneer Packaging Co., North Dixon, Ky.), each with three chambers (8.0 cm×5.75 cm×4.0 cm), were used. An opening (3.5 cm×0.3 cm) was made at the bottom of each of the two inner walls, connecting the three chambers and allowing termites to move between the chambers. For each container, filter papers (Whatman #2, 5.5 cm diameter) were placed in the two lateral side chambers. For each treatment, five replicates (five containers) were used; for each replicate, one side chamber was marked “treated” and the other side chamber marked “untreated.”
A stock solution of 2′-acetonaphthone was prepared by dissolving 0.952 mg (AI) in 5 ml ethanol (190.4 mg/l). One-half of this solution was used to apply 500 μl to filter paper placed in the “treated” chamber to test the highest concentration of 2′-acetonaphthone, 4.0 μg/cm^2. The remaining volume, 2.5 ml, was diluted by adding an equal volume of ethanol. One-half of this new solution was used to add 500 μl to each of 5 filter papers in a “treated” chamber to achieve a concentration of 2.0 μg/cm^2. This dilution and application step was repeated four more times to make four additional concentrations equivalent to 1.0, 0.50, 0.250 and 0.125 μg/cm^2. Filter papers placed in the “untreated” chambers were left untreated. Five containers served as replicates for each tested concentration. Five containers served as controls, in which filter paper in the “treated” chamber received 500 μl ethanol, and that in the “untreated” chamber was left untreated.
Containers were kept at ambient conditons overnight for ethanol evaporation, and then all filter papers were weighed. In the middle chamber of all containers, 55 g wetted sand (50 g sand mixed with 5 ml DDH2O) was added, then packed and leveled to allow for clear visualization of tunnels along the bottom of the containers. Treated and untreated filter papers were wetted with 250 μl DDH2O. Then 100 workers and 5 soldiers from colony E were released onto the surface of the sand in the middle chamber.
The containers were covered and incubated for 12 days at 26.6° C. and 70% RH, and checked every 2 days for moisture content. The number of termites in the two lateral chambers was recorded daily for 3 days. On day 12, the bottom of each container was scanned (ScanJet 4c, Hewlett-Packard, Palo Alto, Calif.) and the images printed to measure and calculate the areas of tunnels. The experiment was ended on day 12, and the number of living termites in each container counted. The treated and untreated filter papers were gently cleaned using deionized water and a small brush to remove all debris. Filter papers were then oven dried at 60° C. for 3 h, and re-weighed to calculate food consumption.
A second trial was conducted with higher concentrations of 2′-acetonaphthone (5 to 40 μ/cm^2) using the above technique with some modifications. A stock solution (1900 mg/l) was prepared by dissolving 0.038 g (AI) 2′-acetonaphthone in 20 ml ethanol. Dilutions were made by taking 6.0, 4.5, 3.0, 1.5, and 0.75 ml from the original stock, and adjusting the volume of each to 6.0 ml with ethanol to yield the following concentrations: 1900.0, 1425.0, 950.0, 475.0, 237.5 mg/l, respectively. For each concentration, ten containers were used, with the filter paper in the “treated” chamber coated with 500 μl of the tested concentration. Filter papers placed in the “untreated” chamber were left untreated. For controls, ten containers were similarly handled except that the filter paper in the “treated” chamber was coated with 500 μl ethanol. The solvent was allowed to evaporate overnight at ambient conditions. The final concentrations of 2′-acetonaphthone on the filter papers were 5, 10, 20, 30, and 40 μg/cm^2.
The ten containers for each concentration were equally divided into two equal sub-groups. […]

[1] = Longevity and volatility of the eleven chemicals; assay type: physicochemical; conditions: among the eleven chemicals tested

With `CC(=O)c1ccc2ccccc2c1` [2′-acetonaphthone] the “concentration of strong repellency and significant reduction in feeding activity” value (C. formosanus workers) was no less than 20 μg/cm^2, the “concentration of strong repellency and significant reduction in feeding activity” value (C. formosanus workers; listed as 2′-Acetonaphthone) was no less than 20.0 μg/cm^2 and the “concentration of strong repellency and significant reduction in feeding activity” value (C. formosanus workers; listed as 2′-aceetonaphthone) was no less than 20.0 μg/cm^2. For the same molecule, the “concentration of strong repellency and significant reduction in feeding activity” value (C. formosanus workers; listed as 2′-acetonapththone) was no less than 20 μg/cm^2, the “Survival rates after 15 days exposure” value (C. formosanus workers; concentrations ≧20 μg/cm^2, control 63.0%, difference not significant) was 45.0-51.2% and the “concentration with significant differences in termite distribution between the chambers” value (C. formosanus workers; day 8) was no less than 5.0 μg/cm^2. For the same molecule, the “concentration at which repellent” value (C. formosanus workers; untreated food source available) was 5 μg/cm^2 filter paper, the “concentration with significantly more termites in the untreated chamber than in the treated chamber” value (C. formosanus workers; within the first 3 days) was no less than 10.0 μg/cm^2 and the longevity [1] was “highest longevity”. The volatility [1] was “lowest volatility”.

Source: patent publication US7351744B2, “Naphthalene derivatives as termite repellents and toxicants” (Board of Supervisors of Louisiana State University and …, priority 2003, dated 2008)
